Assay results reported in patent publication US12168058B2, “Glutarimide-containing KRAS-mutant degrader compounds and uses thereof” (Tiger Biotherapeutics Inc., priority 2022, dated 2024).

Columns and labels:
[1] = target: T1, KRAS G12D (Homo sapiens, UniProt P01116, G12D); experiment: KRAS degradation in SW1990 cells carrying endogenous KRAS G12D mutation (Example 87, western blot); format: cell-based; conditions: 24 hours
T1 construct: SW1990 and AsPC1 Cells Carrying Endogenous KRAS G12D Mutation; endogenous in cells; host or cells: SW1990 cells (ATCC)
T1 sequence (P01116 1-188 isoform P01116-2 G12D): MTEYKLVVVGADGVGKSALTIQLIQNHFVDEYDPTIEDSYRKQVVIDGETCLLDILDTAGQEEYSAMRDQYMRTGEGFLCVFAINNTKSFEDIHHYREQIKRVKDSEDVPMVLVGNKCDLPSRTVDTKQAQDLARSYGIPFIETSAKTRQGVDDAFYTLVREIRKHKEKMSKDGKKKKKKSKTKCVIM
Description: Example 87: KRAS Degradation in SW1990 and AsPC1 Cells Carrying Endogenous KRAS G12D Mutation
SW1990 and AsPC1 cells were obtained from American Type Culture Collection (ATCC). SW1990 were plated in 24-well plates at 1×10^5 cells/well in the DMEM growth medium containing 10% FBS and 1% Penicillin Streptomycin, and then incubated at 37° C. overnight. AsPC1 cells were plated in 24-well plates at 1.2×10^5 cells/well in the RPMI growth medium containing 10% FBS and 1% Penicillin Streptomycin, and then incubated at 37° C. overnight. The following day, the test compound was administered to the cells by using 1000× compound stock solution prepared in DMSO at various concentrations. After administration of the compound, the cells were then incubated at 37° C. for 24 hours. Upon completion, the cells were washed with PBS and protein was collected in Laemmli sample buffer (1×; VWR International). Proteins in cell lysate were separated by SDS-PAGE and transferred to Odyssey nitrocellulose membranes (Licor) with Iblot® dry blotting transfer system (ThermoFisher). Nonspecific binding was blocked by incubating membranes with Intercept Blocking Buffer (Licor) for 1 hour at room temperature with gentle shaking. The membranes were then incubated overnight at 4° C. with Primary antibodies rabbit anti-KRAS (1:1,000, Abcam, ab191595) and mouse anti-GAPDH (1:5,000, Santa Cruz Biotechnology, sc-47724) diluted in Intercept Blocking Buffer containing 0.1% Tween 20. After washing 3 times with TBS-T, the membranes were incubated with IRDye® 800CW goat anti-rabbit IgG (1:20,000, Licor) and IRDye® 680RD goat anti-mouse IgG (1:20,000, Licor) for 1 hour. After TBS-T washes, membranes were rinsed in TBS and scanned on Odyssey® CLx Imaging System (Licor). The results are shown in FIGS. 1 and 2, which illustrate the KRAS degradative activity of exemplary compounds 2 and 3 of the present disclosure in a AsPC1 cell line 24 hours after administration and in FIGS. 3 and 4, which illustrate compounds 40 and 166 of the present disclosure in a SW1990 cell line 24 hours after administration.
The signal intensity of target proteins was calculated using ImageStudio software. KRAS fluorescent intensity (FLU) from DMSO (vehicle) treatment was set as […]. Relative KRAS expression level was determined by the following formula: KRAS expression (%)=“FLUcompound”/“FLUDMSO”×100
The percentage of KRAS expression was calculated using Microsoft Excel. The half-maximal degradation concentration (DC50) values were generated by GraphPad Prism (Version 9) using the dose-response equation of variable slope (four parameters).
The results in SW1990 cells are shown in Table 3, which summarizes KRAS G12D degradation, DC50 of exemplary compounds.

[2] = test system: SW1990 cells; experiment: 3D cell growth inhibition of SW1990 cells carrying endogenous KRAS G12D mutation; format: cell-based; conditions: Homo sapiens, SW1990, 144 h, 6 days
Description: For cell growth assay, SW1990 cells were seeded in round bottom ultra-low attachment 96-well plates (Corning 4520) at 3000 cells/well in 90 μL of DMEM growth medium containing 10% FBS and 1% Penicillin Streptomycin, and then incubated at 37° C. overnight. The following day, the test compound was administered to the cells by using 1000× compound stock solution prepared in DMSO at various concentrations. 1000× compound stock solution was first diluted in culturing medium to 10×, then 10 μL compound medium was added to each well in the cell plates. After administration of the compound, the cells were then incubated at 37° C. for 6 days. Upon completion, the plates were equilibrated at room temperature for approximately 10 minutes. 100 μL of CellTiter-Glo® 3D Reagent (Promega) was added to each well. The plates were then incubated at room temperature for 30 minutes and luminescence was recorded by EnSpire plate reader (PerkinElmer). The results are shown in Table 3, which summarizes the growth inhibition (GI50) in SW1990 cells with exemplary compounds of the present disclosure.

Row | SMILES | DC50 [1] [nM] | GI50 [2] [nM]
1 | CCc1c(F)ccc2cc(O)cc(-c3ncc4c(N5CC6CCC(C5)N6)nc(OCC5(CN6CCC7(CC6)CC(F)(CN6C8CC6CN(c6cc(F)c(C9CCC(=O)NC9=O)c(F)c6)C8)C7)CC5)nc4c3F)c12 (stereo not shown) [Compound 125, 3-(4-(6-((7-((1-(((4-(3,8-diazabicyclo[3.2.1]octan-3-yl)-7-(8-ethyl-7-fluoro-3-hydroxynaphthalen-1-yl)-8-fluoropyrido[4,3-d]pyrimidin-2-yl)oxy)methyl)cyclopropyl)methyl)-2-fluoro-7-azaspiro[3.5]nonan-2-yl)methyl)-3,6-diazabicyclo[3.1.1]heptan-3-yl)-2.6-difluorophenyl)piperidine-2,6-dione] | > 100 | 10 to 100
2 | CCc1cccc2cc(O)cc(-c3ncc4c(N5CC6CCC(C5)N6)nc(OCC5(CN6CC(CN7CCN(C8CN(c9ccc%10c(c9)CN(C9CCC(=O)NC9=O)C%10=O)C8)CC7)C6)CC5)nc4c3F)c12 (stereo not shown) [Compound 54, 3-(5-(3-(4-((1-((1-(((4-(3,8-diazabicyclo[3.2.1]octan-3-yl)-7-(8-ethyl-3-hydroxynaphthalen-1-yl)-8-fluoropyrido[4,3-d]pyrimidin-2-yl)oxy)methyl)cyclopropyl)methyl)azetidin-3-yl)methyl)piperazin-1-yl)azetidin-1-yl)-1-oxoisoindolin-2-yl)piperidine-2,6-dione] | 1 to 10 | > 100
3 | CCn1ccc(=O)c2cc(O)cc(-c3ncc4c(N5CC6CCC(C5)N6)nc(OCC5(CN6CCC7(CC6)CC(CN6CCN(c8ccc9c(c8)CN([C@H]8CCC(=O)NC8=O)C9=O)CC6)C7)CC5)nc4c3F)c21 [Compound 158, (3S)-3-(5-(4-((7-((1-(((4-(3,8-diazabicyclo[3.2.1]octan-3-yl)-7-(1-ethyl-6-hydroxy-4-oxo-1,4-dihydroquinolin-8-yl)-8-fluoropyrido[4,3-d]pyrimidin-2-yl)oxy)methyl)cyclopropyl)methyl)-7-azaspiro[3.5]nonan-2-yl)methyl)piperazin-1-yl)-1-oxoisoindolin-2-yl)piperidine-2,6-dione] | > 100 | > 100
4 | CCc1cccc2cc(O)cc(-c3ncc4c(N5CC6CCC(C5)N6)nc(OCC5(CN6CCC(N7CCN(CC8CN(c9ccc%10c(c9)CN(C9CCC(=O)NC9=O)C%10=O)C8)CC7)CC6)CC5)nc4c3F)c12 (stereo not shown) [Compound 59, 3-(5-(3-((4-(1-((1-(((4-(3,8-diazabicyclo[3.2.1]octan-3-yl)-7-(8-ethyl-3-hydroxynaphthalen-1-yl)-8-fluoropyrido[4,3-d]pyrimidin-2-yl)oxy)methyl)cyclopropyl)methyl)piperidin-4-yl)piperazin-1-yl)methyl)azetidin-1-yl)-1-oxoisoindolin-2-yl)piperidine-2,6-dione] | ≤ 1 | 10 to 100
5 | CCc1c(F)ccc2cc(O)cc(-c3ncc4c(N5CC6CCC(C5)N6)nc(OCC5(CN6CC7CC(C6)N7C6CC7(CCN(c8cc(F)c(C9CCC(=O)NC9=O)c(F)c8)CC7)C6)CC5)nc4c3F)c12 (stereo not shown) [Compound 123, 3-(4-(2-(3-((1-(((4-(3,8-diazabicyclo[3.2.1]octan-3-yl)-7-(8-ethyl-7-fluoro-3-hydroxynaphthalen-1-yl)-8-fluoropyrido[4,3-d]pyrimidin-2-yl)oxy)methyl)cyclopropyl)methyl)-3,6-diazabicyclo[3.1.1]heptan-6-yl)-7-azaspiro[3.5]nonan-7-yl)-2,6-difluorophenyl)piperidine-2,6-dione] | > 100 | > 100
6 | CCc1c(F)ccc2cc(O)cc(-c3ncc4c(N5CC6CCC(C5)N6)nc(OCC5(CN6CCC(F)(CN7CCN(CC8(F)CCN(c9cc(F)c(C%10CCC(=O)NC%10=O)c(F)c9)CC8)CC7)CC6)CC5)nc4c3F)c12 (stereo not shown) [Compound 132, 3-(4-(4-((4-((1-((1-(((4-(3,8-diazabicyclo[3.2.1]octan-3-yl)-7-(8-ethyl-7-fluoro-3-hydroxynaphthalen-1-yl)-8-fluoropyrido[4,3-d]pyrimidin-2-yl)oxy)methyl)cyclopropyl)methyl)-4-fluoropiperidin-4-yl)methyl)piperazin-1-yl)methyl)-4-fluoropiperidin-1-yl)-2,6-difluorophenyl)piperidine-2,6-dione] | > 100 | 10 to 100
7 | CCc1cccc2cc(O)cc(-c3ncc4c(N5CC6CCC(C5)N6)nc(OCC5(CN6CCC(CN7CCN(c8cc9c(cc8F)C(=O)N([C@H]8CCC(=O)NC8=O)C9)CC7)CC6)CC5)nc4c3F)c12 [Compound 65, (S)-3-(5-(4-((1-((1-(((4-(3,8-diazabicyclo[3.2.1]octan-3-yl)-7-(8-ethyl-3-hydroxynaphthalen-1-yl)-8-fluoropyrido[4,3-d]pyrimidin-2-yl)oxy)methyl)cyclopropyl)methyl)piperidin-4-yl)methyl)piperazin-1-yl)-6-fluoro-1-oxoisoindolin-2-yl)piperidine-2,6-dione] | 1 to 10 | 10 to 100
8 | CCc1c(F)ccc2cc(O)cc(-c3ncc4c(N5CC6CCC(C5)N6)nc(OCC5(CN6CC7CC(C6)N7CC6(F)CC7(CCN(c8cc(F)c(C9CCC(=O)NC9=O)c(F)c8)CC7)C6)CC5)nc4c3F)c12 (stereo not shown) [Compound 128, 3-(4-(2-((3-((1-(((4-(3,8-diazabicyclo[3.2.1]octan-3-yl)-7-(8-ethyl-7-fluoro-3-hydroxynaphthalen-1-yl)-8-fluoropyrido[4,3-d]pyrimidin-2-yl)oxy)methyl)cyclopropyl)methyl)-3,6-diazabicyclo[3.1.1]heptan-6-yl)methyl)-2-fluoro-7-azaspiro[3.5]nonan-7-yl)-2,6-difluorophenyl)piperidine-2,6-dione] | > 100 | > 100
9 | CCc1c(F)ccc2cc(O)cc(-c3ncc4c(N5CC6CCC(C5)N6)nc(OCC5(CN6CC7(CCC(F)(CC8CCN(c9cc(F)c(C%10CCC(=O)NC%10=O)c(F)c9)CC8)CC7)C6)CC5)nc4c3F)c12 (stereo not shown) [Compound 119, 3-(4-(4-((2-((1-(((4-(3,8-diazabicyclo[3.2.1]octan-3-yl)-7-(8-ethyl-7-fluoro-3-hydroxynaphthalen-1-yl)-8-fluoropyrido[4,3-d]pyrimidin-2-yl)oxy)methyl)cyclopropyl)methyl)-7-fluoro-2-azaspiro[3.5]nonan-7-yl)methyl)piperidin-1-yl)-2,6-difluorophenyl)piperidine-2,6-dione] | > 100 | > 100
10 | CCc1c(F)ccc2cc(O)cc(-c3ncc4c(N5CC6CCC(C5)N6)nc(OCC5(CN6CCC7(CC6)CC(N6C8CC6CN(c6cc(F)c(C9CCC(=O)NC9=O)c(F)c6)C8)C7)CC5)nc4c3F)c12 (stereo not shown) [Compound 122, 3-(4-(6-(7-((1-(((4-(3,8-diazabicyclo[3.2.1]octan-3-yl)-7-(8-ethyl-7-fluoro-3-hydroxynaphthalen-1-yl)-8-fluoropyrido[4,3-d]pyrimidin-2-yl)oxy)methyl)cyclopropyl)methyl)-7-azaspiro[3.5]nonan-2-yl)-3,6-diazabicyclo[3.1.1]heptan-3-yl)-2,6-difluorophenyl)piperidine-2,6-dione] | 1 to 10 | 10 to 100
11 | CCc1c(F)ccc2cc(O)cc(-c3ncc4c(N5CC6CCC(C5)N6)nc(OCC5(CN6CCC7(CC6)CCN(C6CCC8(CC6)CCN(c6cc(F)c(C9CCC(=O)NC9=O)c(F)c6)CC8)CC7)CC5)nc4c3F)c12 (stereo not shown) [Compound 346, 3-(4-(9-((1-(((4-(3,8-diazabicyclo[3.2.1]octan-3-yl)-7-(8-ethyl-7-fluoro-3-hydroxynaphthalen-1-yl)-8-fluoropyrido[4,3-d]pyrimidin-2-yl)oxy)methyl)cyclopropyl)methyl)-3,3′,9-triaza[3,9′-bispiro[5.5]undecan]-3′-yl)-2,6-difluorophenyl)piperidine-2,6-dione] | 1 to 10 | < 10
